Results as given in patent US9637473B2, “Acrylamide derivatives as antimalarial agents” (priority 2013, dated 2017).
Where a name gives a salt, the structure may show the parent alone.

Each compound was assayed on P. Falciparum NF54 (assay: Plasmodium falciparum in vitro assay ([3H]-hypoxanthine incorporation)). Conditions: Plasmodium falciparum, Erythrocyte, P. Falciparum NF54, erythrocytic stages in human red blood cells, 50% human serum.
Format: cell-based
Summary of the method: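 This in vitro antimalarial assay used P. falciparum erythrocytic stages cultured in human erythrocytes and measured [3H]-hypoxanthine incorporation. Radioactivity on the dried filters, placed in plastic foil with 10 mL scintillation fluid, was counted in a Betaplate liquid scintillation counter. Sigmoidal inhibition curves built in Microsoft Excel gave the IC50.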

For `CC(C)N1CCC(N(Cc2cccc(Nc3ccncc3)c2)C(=O)/C=C/c2ccc(C(F)(F)F)cc2)CC1` [Example 126, (E)-N-(1-Isopropyl-piperidin-4-yl)-N-[3-(pyridin-4-ylamino)-benzyl]-3-(4-trifluoromethyl-phenyl)-acrylamide formate], which IC50 is on record?
Its IC50 is 30 nM.

Which IC50 does the source give for `CC(C)N1CCC(N(Cc2cccc(N(C)c3ccncc3)n2)C(=O)/C=C/c2ccc(C(F)(F)F)cc2)CC1` [Example 127, (E)-N-(1-Isopropyl-piperidin-4-yl)-N-[6-(methyl-pyridin-4-yl-amino)-pyridin-2-ylmethyl]-3-(4-trifluoromethyl-phenyl)-acrylamide formate] here?
The IC50 was 184 nM.

How did the IC50 turn out when `Cc1cc(N(C)c2cccc(CN(C(=O)/C=C/c3ccc(C(F)(F)F)cc3)C3CCN(C(C)C)CC3)n2)ccn1` [Example 128, (E)-N-(1-Isopropyl-piperidin-4-yl)-N-{6-[methyl-(2-methyl-pyridin-4-yl)-amino]-pyridin-2-ylmethyl}-3-(4-trifluoromethyl-phenyl)-acrylamide formate] was run?
The IC50 was 302 nM.

`Cc1cc(Nc2cccc(CN(C(=O)/C=C/c3ccc(C(F)(F)F)cc3)C3CCN(C(C)C)CC3)n2)ccn1` [Example 129, (E)-N-(1-Isopropyl-piperidin-4-yl)-N-[6-(2-methyl-pyridin-4-ylamino)-pyridin-2-ylmethyl]-3-(4-trifluoromethyl-phenyl)-acrylamide formate] was tested. Which IC50 did it give?
Its IC50 is 21 nM.

Which IC50 does the source give for `Cc1cnccc1Nc1cccc(CN(C(=O)/C=C/c2ccc(C(F)(F)F)cc2)C2CCN(C(C)C)CC2)n1` [Example 130, (E)-N-(1-Isopropyl-piperidin-4-yl)-N-[6-(3-methyl-pyridin-4-ylamino)-pyridin-2-ylmethyl]-3-(4-trifluoromethyl-phenyl)-acrylamide formate] here?
Its IC50 is 42 nM.

How did the IC50 turn out when `CC(C)N1CCC(N(Cc2cccc(Nc3ccncc3F)n2)C(=O)/C=C/c2ccc(C(F)(F)F)cc2)CC1` [Example 131, (E)-N-[6-(3-Fluoro-pyridin-4-ylamino)-pyridin-2-ylmethyl]-N-(1-isopropyl-piperidin-4-yl)-3-(4-trifluoromethyl-phenyl)-acrylamide formate] was run?
The IC50 was 303 nM.

How did the IC50 turn out when `CC(C)N1CCC(N(Cc2cccc(Nc3ccncc3)n2)C(=O)/C=C/c2ccc(C(F)(F)F)cc2)CC1` [Example 132, (E)-N-(1-Isopropyl-piperidin-4-yl)-N-[6-(pyridin-4-ylamino)-pyridin-2-ylmethyl]-3-(4-trifluoromethyl-phenyl)-acrylamide formate] was run?
Its IC50 is 22 nM.

Which IC50 does the source give for `CC(C)N1CCC(N(Cc2cncc(N(C)c3ccncc3)c2)C(=O)/C=C/c2ccc(C(F)(F)F)cc2)CC1` [Example 133, (E)-N-(1-Isopropyl-piperidin-4-yl)-N-[5-(methyl-pyridin-4-yl-amino)-pyridin-3-ylmethyl]-3-(4-trifluoromethyl-phenyl)-acrylamide formate] here?
The IC50 was 69 nM.

For `CC(C)N1CCC(N(Cc2cncc(N(C)c3cccnc3)c2)C(=O)/C=C/c2ccc(C(F)(F)F)cc2)CC1` [Example 134, (E)-N-(1-Isopropyl-piperidin-4-yl)-N-[5-(methyl-pyridin-3-yl-amino)-pyridin-3-ylmethyl]-3-(4-trifluoromethyl-phenyl)-acrylamide formate], which IC50 is on record?
The IC50 was 213 nM.

For `Cc1cc(N(C)c2cncc(CN(C(=O)/C=C/c3ccc(C(F)(F)F)cc3)C3CCN(C(C)C)CC3)c2)ccn1` [Example 135, (E)-N-(1-Isopropyl-piperidin-4-yl)-N-{5-[methyl-(2-methyl-pyridin-4-yl)-amino]-pyridin-3-ylmethyl}-3-(4-trifluoromethyl-phenyl)-acrylamide formate], which IC50 is on record?
Its IC50 is 84 nM.

For `Cc1cc(Nc2cncc(CN(C(=O)/C=C/c3ccc(C(F)(F)F)cc3)C3CCN(C(C)C)CC3)c2)ccn1` [Example 136, (E)-N-(1-Isopropyl-piperidin-4-yl)-N-[5-(2-methyl-pyridin-4-ylamino)-pyridin-3-ylmethyl]-3-(4-trifluoromethyl-phenyl)-acrylamide formate], which IC50 is on record?
The IC50 was 80 nM.

How did the IC50 turn out when `Cc1cnccc1Nc1cncc(CN(C(=O)/C=C/c2ccc(C(F)(F)F)cc2)C2CCN(C(C)C)CC2)c1` [Example 137, (E)-N-(1-Isopropyl-piperidin-4-yl)-N-[5-(3-methyl-pyridin-4-ylamino)-pyridin-3-ylmethyl]-3-(4-trifluoromethyl-phenyl)-acrylamide formate] was run?
Its IC50 is 47 nM.

Which IC50 does the source give for `CC(C)N1CCC(N(Cc2cncc(Nc3ccncc3F)c2)C(=O)/C=C/c2ccc(C(F)(F)F)cc2)CC1` [Example 138, (E)-N-[5-(3-Fluoro-pyridin-4-ylamino)-pyridin-3-ylmethyl]-N-(1-isopropyl-piperidin-4-yl)-3-(4-trifluoromethyl-phenyl)-acrylamide formate] here?
Its IC50 is 344 nM.

How did the IC50 turn out when `CC(C)N1CCC(N(Cc2cncc(Nc3ccncn3)c2)C(=O)/C=C/c2ccc(C(F)(F)F)cc2)CC1` [Example 139, (E)-N-(1-Isopropyl-piperidin-4-yl)-N-[5-(pyrimidin-4-ylamino)-pyridin-3-ylmethyl]-3-(4-trifluoromethyl-phenyl)-acrylamide formate] was run?
Its IC50 is 355 nM.

`CC(C)N1CCC(N(Cc2cncc(N(C)c3ccccn3)c2)C(=O)/C=C/c2ccc(C(F)(F)F)cc2)CC1` [Example 140, (E)-N-(1-Isopropyl-piperidin-4-yl)-N-[5-(methyl-pyridin-2-yl-amino)-pyridin-3-ylmethyl]-3-(4-trifluoromethyl-phenyl)-acrylamide formate] was tested. Which IC50 did it give?
Its IC50 is 354 nM.

`CC(C)N1CCC(N(Cc2cncc(Nc3ccncc3)c2)C(=O)/C=C/c2ccc(C(F)(F)F)cc2)CC1` [Example 141, (E)-N-(1-Isopropyl-piperidin-4-yl)-N-[5-(pyridin-4-ylamino)-pyridin-3-ylmethyl]-3-(4-trifluoromethyl-phenyl)-acrylamide formate] was tested. Which IC50 did it give?
Its IC50 is 82 nM.

For `CC(C)N1CCC(N(Cc2cccc(N(C)c3ccncc3)c2)C(=O)/C=C/c2ccc(C(F)(F)F)cc2)CC1` [Example 142, (E)-N-(1-Isopropyl-piperidin-4-yl)-N-[3-(methyl-pyridin-4-yl-amino)-benzyl]-3-(4-trifluoromethyl-phenyl)-acrylamide formate], which IC50 is on record?
Its IC50 is 27 nM.

With `CC(C)Oc1ccc(/C=C/C(=O)N(Cc2ccc(N(C)c3ccncc3)cc2)C2CCN(Cc3ccccc3)CC2)cc1` [Example 143, (E)-N-(1-Benzyl-piperidin-4-yl)-3-(4-isopropoxy-phenyl)-N-[4-(methyl-pyridin-4-yl-amino)-benzyl]-acrylamide] as the compound, how does the IC50 read?
The IC50 was 102 nM.

`CN(c1ccncc1)c1ccc(CN(C(=O)/C=C/c2ccc(C(C)(C)C)cc2)C2CCN(Cc3ccccc3)CC2)cc1` [Example 144, (E)-N-(1-Benzyl-piperidin-4-yl)-3-(4-tert-butyl-phenyl)-N-[4-(methyl-pyridin-4-yl-amino)-benzyl]-acrylamide] was tested. Which IC50 did it give?
The IC50 was 174 nM.

For `CN(c1ccncc1)c1ccc(CN(C(=O)/C=C/c2ccc(OC(F)F)cc2)C2CCN(Cc3ccccc3)CC2)cc1` [Example 145, (E)-N-(1-Benzyl-piperidin-4-yl)-3-(4-difluoromethoxy-phenyl)-N-[4-(methyl-pyridin-4-yl-amino)-benzyl]-acrylamide], which IC50 is on record?
Its IC50 is 69 nM.

Which IC50 does the source give for `CN(c1ccncc1)c1ccc(CN(C(=O)/C=C/c2ccc(OC(F)(F)F)cc2)C2CCN(Cc3ccccc3)CC2)cc1` [Example 146, (E)-N-(1-Benzyl-piperidin-4-yl)-N-[4-(methyl-pyridin-4-yl-amino)-benzyl]-3-(4-trifluoromethoxy-phenyl)-acrylamide] here?
Its IC50 is 48 nM.

How did the IC50 turn out when `CCc1ccc(/C=C/C(=O)N(Cc2ccc(N(C)c3ccncc3)cc2)C2CCN(Cc3ccccc3)CC2)cc1` [Example 147, (E)-N-(1-Benzyl-piperidin-4-yl)-3-(4-ethyl-phenyl)-N-[4-(methyl-pyridin-4-yl-amino)-benzyl]-acrylamide] was run?
The IC50 was 157 nM.

How did the IC50 turn out when `CCCOc1ccc(/C=C/C(=O)N(Cc2ccc(N(C)c3ccncc3)cc2)C2CCN(Cc3ccccc3)CC2)cc1` [Example 148, (E)-N-(1-Benzyl-piperidin-4-yl)-N-[4-(methyl-pyridin-4-yl-amino)-benzyl]-3-(4-propoxy-phenyl)-acrylamide] was run?
Its IC50 is 61 nM.

For `COc1ccc(/C=C/C(=O)N(Cc2ccc(N(C)c3ccncc3)cc2)C2CCN(Cc3ccccc3)CC2)cc1` [Example 149, (E)-N-(1-Benzyl-piperidin-4-yl)-3-(4-methoxy-phenyl)-N-[4-(methyl-pyridin-4-yl-amino)-benzyl]-acrylamide], which IC50 is on record?
Its IC50 is 181 nM.

How did the IC50 turn out when `COc1cccc(/C=C/C(=O)N(Cc2ccc(N(C)c3ccncc3)cc2)C2CCN(Cc3ccccc3)CC2)c1` [Example 150, (E)-N-(1-Benzyl-piperidin-4-yl)-3-(3-methoxy-phenyl)-N-[4-(methyl-pyridin-4-yl-amino)-benzyl]-acrylamide] was run?
Its IC50 is 293 nM.

Which IC50 does the source give for `COc1ccccc1/C=C/C(=O)N(Cc1ccc(N(C)c2ccncc2)cc1)C1CCN(Cc2ccccc2)CC1` [Example 151, (E)-N-(1-Benzyl-piperidin-4-yl)-3-(2-methoxy-phenyl)-N-[4-(methyl-pyridin-4-yl-amino)-benzyl]-acrylamide] here?
Its IC50 is 222 nM.

How did the IC50 turn out when `CN(c1ccncc1)c1ccc(CN(C(=O)/C=C/c2ccc(Cl)cc2)C2CCN(Cc3ccccc3)CC2)cc1` [Example 152, (E)-N-(1-Benzyl-piperidin-4-yl)-3-(4-chloro-phenyl)-N-[4-(methyl-pyridin-4-yl-amino)-benzyl]-acrylamide] was run?
The IC50 was 76 nM.

With `CN(c1ccncc1)c1ccc(CN(C(=O)/C=C/c2cccc(Cl)c2)C2CCN(Cc3ccccc3)CC2)cc1` [Example 153, (E)-N-(1-Benzyl-piperidin-4-yl)-3-(3-chloro-phenyl)-N-[4-(methyl-pyridin-4-yl-amino)-benzyl]-acrylamide] as the compound, how does the IC50 read?
Its IC50 is 87 nM.

How did the IC50 turn out when `CN(c1ccncc1)c1ccc(CN(C(=O)/C=C/c2ccccc2Cl)C2CCN(Cc3ccccc3)CC2)cc1` [Example 154, (E)-N-(1-Benzyl-piperidin-4-yl)-3-(2-chloro-phenyl)-N-[4-(methyl-pyridin-4-yl-amino)-benzyl]-acrylamide] was run?
Its IC50 is 145 nM.

How did the IC50 turn out when `CN(c1ccncc1)c1ccc(CN(C(=O)/C=C/c2ccc(F)cc2)C2CCN(Cc3ccccc3)CC2)cc1` [Example 155, (E)-N-(1-Benzyl-piperidin-4-yl)-3-(4-fluoro-phenyl)-N-[4-(methyl-pyridin-4-yl-amino)-benzyl]-acrylamide] was run?
Its IC50 is 101 nM.
